Data on 3 molecules can be found in US11897862B2 (Gilead Sciences, Inc., priority 2022, dated 2024).

Read-outs that look alike come from different tables or passages of the source.

Holding throughout (format): cell-based
For one assay, the target named is T1, IKZF1 (Homo sapiens, UniProt Q13422+Q96SW2).
T1 construct: expressed in transfected cells
The assay can be described thus: HEK293 HiBiT in vitro degradation of IKZF1. The following applies: for Dmax: HEK293, HEK293 HiBiT, maximum degradation at the highest concentration tested; for DC50: HEK293 HiBiT, 18-24 hr incubation, normalized to DMSO control, read-out: IKZF1 EC50. Put shortly: (§1)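 Cellular target level is measured as luminescence from an 11-residue HiBiT tag fused via a linker to the C-terminus of IKZF1, IKZF2 or SALL4 in stable Flp-In T-REx HEK293 pools. Reporter expression is induced overnight with doxycycline ([…] final), and compounds act for 18-24 h before lytic detection.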

The target of a further assay is T2, SALL4 (Homo sapiens, UniProt Q96SW2+Q9UJQ4).
T2 construct: expressed in transfected cells
The assay can be described thus: HEK293 HiBiT in vitro degradation of SALL4. The following applies: 18-24 hr incubation, normalized to DMSO control, read-out: SALL4 EC50. The method, boiled down: as §1

Assay [1] deals with T3, IKZF2 (Homo sapiens, UniProt Q96SW2+Q9UKS7). The assay can be described thus: HEK293 HiBiT in vitro degradation of IKZF2. Set-up: expressed in transfected cells. The note with it: for Dmax: HEK293, HEK293 HiBiT, maximum degradation at the highest concentration tested; for DC50: HEK293 HiBiT, 18-24 hr incubation, normalized to DMSO control, read-out: IKZF2 EC50. The method, boiled down: as §1
Target sequence in this assay (Q9UKS7 1-500 isoform Q9UKS7-2): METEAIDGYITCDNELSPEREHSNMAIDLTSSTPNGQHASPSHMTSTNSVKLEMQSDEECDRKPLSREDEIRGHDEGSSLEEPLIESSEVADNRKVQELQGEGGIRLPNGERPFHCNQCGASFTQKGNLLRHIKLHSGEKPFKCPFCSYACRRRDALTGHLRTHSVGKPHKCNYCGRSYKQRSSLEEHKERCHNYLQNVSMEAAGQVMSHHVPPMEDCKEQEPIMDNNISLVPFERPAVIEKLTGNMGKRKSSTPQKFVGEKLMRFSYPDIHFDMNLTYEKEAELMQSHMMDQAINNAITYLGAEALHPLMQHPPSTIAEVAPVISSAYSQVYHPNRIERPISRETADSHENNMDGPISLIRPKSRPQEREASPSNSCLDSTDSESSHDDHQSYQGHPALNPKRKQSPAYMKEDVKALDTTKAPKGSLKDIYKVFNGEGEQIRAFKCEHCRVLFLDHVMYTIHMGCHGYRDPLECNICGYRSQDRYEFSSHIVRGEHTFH
Target sequence in this assay (Q96SW2 whole entry): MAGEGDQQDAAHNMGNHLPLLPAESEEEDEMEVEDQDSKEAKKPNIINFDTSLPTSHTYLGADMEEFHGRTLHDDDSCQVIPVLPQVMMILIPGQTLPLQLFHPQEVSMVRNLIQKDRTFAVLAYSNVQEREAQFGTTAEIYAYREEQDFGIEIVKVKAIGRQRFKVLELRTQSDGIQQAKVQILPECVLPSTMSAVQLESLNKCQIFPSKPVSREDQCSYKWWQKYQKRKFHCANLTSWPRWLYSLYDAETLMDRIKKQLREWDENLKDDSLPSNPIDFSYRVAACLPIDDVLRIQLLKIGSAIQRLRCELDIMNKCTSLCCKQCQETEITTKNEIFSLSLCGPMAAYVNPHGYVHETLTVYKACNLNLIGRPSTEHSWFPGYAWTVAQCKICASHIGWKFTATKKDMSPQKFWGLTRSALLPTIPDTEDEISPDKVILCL
Target sequence in this assay (Q16531 whole entry partner): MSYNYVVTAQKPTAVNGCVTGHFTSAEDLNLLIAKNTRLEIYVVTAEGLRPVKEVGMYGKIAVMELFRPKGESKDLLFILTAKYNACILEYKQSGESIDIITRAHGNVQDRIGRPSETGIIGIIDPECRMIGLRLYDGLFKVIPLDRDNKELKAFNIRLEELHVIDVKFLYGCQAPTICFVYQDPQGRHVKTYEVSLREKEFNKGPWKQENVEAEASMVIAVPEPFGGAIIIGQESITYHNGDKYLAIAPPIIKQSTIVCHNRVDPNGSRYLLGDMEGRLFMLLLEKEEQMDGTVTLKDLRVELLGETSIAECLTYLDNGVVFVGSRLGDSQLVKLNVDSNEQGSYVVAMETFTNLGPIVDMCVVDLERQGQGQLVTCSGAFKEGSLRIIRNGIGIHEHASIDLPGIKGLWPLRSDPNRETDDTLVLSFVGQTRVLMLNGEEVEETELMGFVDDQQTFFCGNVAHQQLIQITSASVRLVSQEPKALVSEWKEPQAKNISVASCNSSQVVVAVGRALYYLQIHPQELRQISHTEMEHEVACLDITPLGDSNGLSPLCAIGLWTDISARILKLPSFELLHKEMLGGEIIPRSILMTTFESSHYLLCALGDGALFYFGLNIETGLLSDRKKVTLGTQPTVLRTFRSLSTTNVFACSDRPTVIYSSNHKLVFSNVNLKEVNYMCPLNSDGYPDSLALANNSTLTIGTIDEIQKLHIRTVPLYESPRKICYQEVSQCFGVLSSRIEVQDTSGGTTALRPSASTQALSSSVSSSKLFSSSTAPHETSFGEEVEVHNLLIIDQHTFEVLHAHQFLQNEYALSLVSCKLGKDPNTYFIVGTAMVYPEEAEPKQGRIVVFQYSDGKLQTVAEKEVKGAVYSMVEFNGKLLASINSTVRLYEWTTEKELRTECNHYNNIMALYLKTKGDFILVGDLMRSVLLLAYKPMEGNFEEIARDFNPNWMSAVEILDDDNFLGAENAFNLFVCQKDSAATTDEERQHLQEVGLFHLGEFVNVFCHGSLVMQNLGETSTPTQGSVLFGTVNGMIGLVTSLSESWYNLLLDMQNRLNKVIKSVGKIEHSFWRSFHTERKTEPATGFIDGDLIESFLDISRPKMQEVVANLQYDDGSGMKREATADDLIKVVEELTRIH

Assay [2] addresses T3, IKZF2. The assay can be described thus: Human whole blood IKZF2 degradation (flow cytometry, CD4/CD25/Foxp3+ Treg cells). Set-up: endogenous in cells. The note with it: for Dmax / DC50: 24 hrs incubation, IKZF2 MFI in CD4/CD25/Foxp3+ Treg cells, flow cytometry; for DC50: read-out: IKZF2 EC50. The method, boiled down: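 Fresh healthy-donor human whole blood stimulated with CD3/CD28 activator and serially diluted compound for 24 hrs at 37° C. IKZF2 MFI in CD4/CD25/Foxp3+ Tregs (IKZF1 MFI in CD4+ T cells) measured by flow cytometry after RBC lysis, fixation, permeabilization. EC50 and Dmax versus DMSO wells.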
Target sequence in this assay (Q9UKS7 whole entry): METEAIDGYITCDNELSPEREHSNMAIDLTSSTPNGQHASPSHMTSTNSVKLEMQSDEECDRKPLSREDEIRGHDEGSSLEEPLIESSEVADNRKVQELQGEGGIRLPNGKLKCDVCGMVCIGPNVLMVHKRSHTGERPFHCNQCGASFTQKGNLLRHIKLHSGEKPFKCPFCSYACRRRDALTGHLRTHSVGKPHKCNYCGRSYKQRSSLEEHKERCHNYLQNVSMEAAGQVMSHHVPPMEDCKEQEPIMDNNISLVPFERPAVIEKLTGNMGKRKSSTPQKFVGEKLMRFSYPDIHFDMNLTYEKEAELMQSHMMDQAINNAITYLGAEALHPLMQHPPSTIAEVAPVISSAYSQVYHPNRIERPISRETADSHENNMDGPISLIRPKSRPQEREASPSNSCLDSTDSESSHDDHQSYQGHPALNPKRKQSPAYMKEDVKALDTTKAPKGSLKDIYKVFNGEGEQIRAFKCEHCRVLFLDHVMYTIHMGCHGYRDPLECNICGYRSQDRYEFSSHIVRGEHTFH
Target sequence in this assay (Q96SW2 whole entry): as the sequence (Q96SW2 whole entry) above
Target sequence in this assay (Q16531 whole entry partner): as the sequence (Q16531 whole entry partner) above

Assay [3] has as its target T3, IKZF2. Briefly: Jurkat IKZF2 degradation (flow cytometry). Set-up: endogenous in cells. The following applies: Jurkat cells, overnight incubation; for DC50: flow cytometry, normalized to DMSO control, read-out: IKZF2 Degradation EC50; for Dmax: maximum degradation at the highest concentration tested. On the procedure: (§2) Jurkat cell line (ATCC, Clone E6-1), highly expresses IKZF2 and lends it an appropriate system to screen degradation along with a functional readout. Jurkat cells were grown to 80% confluency in TC medium (RPMI containing glutamax, 10% FBS, 1% NEAA, and 1% Pen/Strep Glutamin in tissue culture flasks.
(§3) The cells were spun down at 400 g for 5 mins and counted. 100 K cells per well were added to a 96-well plate. The compounds were introduced starting at 10 μM and dilutions were made 1:10 for each compound. 100 μL of compound was added to each well for a 12-point titration. The cells were incubated at 37° C. with 5% CO2 overnight.
Cells were stained with appropriate surface and intracellular antibodies and acquired by flow cytometry and analysed for degradation. […]
Target sequence in this assay (Q9UKS7 whole entry): as the sequence (Q9UKS7 whole entry) above
Target sequence in this assay (Q96SW2 whole entry): as the sequence (Q96SW2 whole entry) above
Target sequence in this assay (Q16531 whole entry partner): as the sequence (Q16531 whole entry partner) above

Assay [4] relates to IL-2 production in Jurkat cells. Briefly: Jurkat IL-2 functional assay (ELISA of supernatants). The following applies: Homo sapiens; for maximal fold induction: Jurkat, top of the curve fit; for EC50: overnight incubation. On the procedure:
as §2, §3
The following day, supernatants were collected for a functional readout using ELISA. The supernatants were diluted 1:2 and added to appropriate Human IL-2 plates for IL-2 functional readout.
The top of the curve fit for each compound is reported as the IL-2 ‘fold increase over DMSO control.’

In assay [5] the target is T3, IKZF2. The assay can be described thus: HEK293 IKZF2 degradation kinetics (HiBiT, timepoints 1-24 h). Set-up: expressed in transfected cells. The following applies: for kinact: HEK293, IKZF2, timepoints 1, 2, 3, 4.5 and 24 hour, read-out: Maximum degradation rate Kinact (converted). On the procedure:
The assay technology and principles for evaluating IKZF2 degradation kinetics in HEK293 cells was identical to the HEK293 degradation assay as described above. Additional details are briefly described below.
On Day 1, Cells were grown and induced the same as described above. On Days 2 and 3, compounds for testing were dispensed via ECHO and cells were lifted and plated into compound-spotted assay plates as above. Plates were returned to the 37° C. incubator until addition of Nano-Glo lytic reagent at 1, 2, 3, 4.5, and 24 hour timepoints. At these timepoints, plates were read on Envision reader as above.
All raw data was normalized to DMSO control (final concentration: 0.5%) wells as POC and plotted out as a function of time to generate the degradation rate constant (K) value. The maximum degradation rate (Kinact) was determined by plotting the K value as a function of concentration for each compound tested. Kinact values are shown in Table 25 and the degradation rate plots as well as timecourse of degradation are shown for select compounds in FIG. 1A, FIG. 1B, FIG. 2A and FIG. 2B.
Target sequence in this assay (Q9UKS7 1-500 isoform Q9UKS7-2): as the sequence (Q9UKS7 1-500 isoform Q9UKS7-2) above
Target sequence in this assay (Q96SW2 whole entry): as the sequence (Q96SW2 whole entry) above
Target sequence in this assay (Q16531 whole entry partner): as the sequence (Q16531 whole entry partner) above

The mark [6] stands for this setting: ELISA of supernatants, read-out: IL-2 Production Fold increase over DMSO control.
[7] abbreviates: read-out: increase in IL-2 production relative to DMSO control.

T1 sequence (Q13422 whole entry): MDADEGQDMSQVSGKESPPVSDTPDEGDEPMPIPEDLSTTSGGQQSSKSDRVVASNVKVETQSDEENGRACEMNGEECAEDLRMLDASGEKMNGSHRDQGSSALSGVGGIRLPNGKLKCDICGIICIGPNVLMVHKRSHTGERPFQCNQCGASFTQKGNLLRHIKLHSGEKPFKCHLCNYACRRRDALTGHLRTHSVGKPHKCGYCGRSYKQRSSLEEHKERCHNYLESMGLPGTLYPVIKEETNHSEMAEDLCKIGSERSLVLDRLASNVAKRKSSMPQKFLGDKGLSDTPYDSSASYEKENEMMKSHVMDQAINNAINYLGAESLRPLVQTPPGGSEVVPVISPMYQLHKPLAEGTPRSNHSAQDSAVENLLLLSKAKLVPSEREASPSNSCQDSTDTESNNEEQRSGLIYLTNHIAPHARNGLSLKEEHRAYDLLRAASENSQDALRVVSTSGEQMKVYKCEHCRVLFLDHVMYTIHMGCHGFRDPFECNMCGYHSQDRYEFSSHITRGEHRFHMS
T1 sequence (Q96SW2 whole entry): as the sequence (Q96SW2 whole entry) above
T1 sequence (Q16531 whole entry partner): as the sequence (Q16531 whole entry partner) above
T2 sequence (Q9UJQ4 whole entry): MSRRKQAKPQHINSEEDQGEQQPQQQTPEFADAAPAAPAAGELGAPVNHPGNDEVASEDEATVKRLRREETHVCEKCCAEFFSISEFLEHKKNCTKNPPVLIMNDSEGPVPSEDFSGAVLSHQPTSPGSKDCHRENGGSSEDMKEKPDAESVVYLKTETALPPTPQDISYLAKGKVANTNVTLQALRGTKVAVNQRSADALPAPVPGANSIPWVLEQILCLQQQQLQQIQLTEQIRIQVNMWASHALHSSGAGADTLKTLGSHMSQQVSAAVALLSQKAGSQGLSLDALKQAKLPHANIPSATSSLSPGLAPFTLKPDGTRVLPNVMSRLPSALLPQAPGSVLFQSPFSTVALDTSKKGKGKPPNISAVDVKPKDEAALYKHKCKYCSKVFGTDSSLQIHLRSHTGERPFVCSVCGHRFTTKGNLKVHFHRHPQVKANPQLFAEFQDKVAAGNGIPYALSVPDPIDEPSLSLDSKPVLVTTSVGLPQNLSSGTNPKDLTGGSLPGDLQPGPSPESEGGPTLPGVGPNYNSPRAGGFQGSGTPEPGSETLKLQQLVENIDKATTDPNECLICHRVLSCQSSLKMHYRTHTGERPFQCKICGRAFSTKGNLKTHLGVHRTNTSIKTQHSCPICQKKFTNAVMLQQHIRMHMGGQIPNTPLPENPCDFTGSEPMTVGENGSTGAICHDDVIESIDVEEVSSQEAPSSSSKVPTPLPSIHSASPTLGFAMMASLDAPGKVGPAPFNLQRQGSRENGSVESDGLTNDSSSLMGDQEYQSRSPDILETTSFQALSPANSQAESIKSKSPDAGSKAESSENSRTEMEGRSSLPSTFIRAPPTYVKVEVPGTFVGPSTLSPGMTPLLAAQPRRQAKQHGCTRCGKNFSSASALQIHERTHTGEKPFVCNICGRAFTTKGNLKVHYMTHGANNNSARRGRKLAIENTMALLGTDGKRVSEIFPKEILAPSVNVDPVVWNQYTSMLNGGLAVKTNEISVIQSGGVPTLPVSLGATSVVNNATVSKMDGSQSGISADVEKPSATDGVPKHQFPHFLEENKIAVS
T2 sequence (Q96SW2 whole entry): as the sequence (Q96SW2 whole entry) above
T2 sequence (Q16531 whole entry partner): as the sequence (Q16531 whole entry partner) above

For `CC(N[C@H]1CCCC[C@@H]1Cc1ccc2c(c1F)CN(C1CCC(=O)NC1=O)C2=O)C1CCOCC1` (single isomer, unassigned) [Example 287], the Dmax at IKZF1 was found to be 47%; on IKZF2 [1], 95%; on IKZF2 [2], 92%; at IKZF2 [3], 96%. The DC50 is 66 nM at IKZF1; above 10000 nM at SALL4; 1 nM at IKZF2 [1]; 2 nM at IKZF2 [2]; 0.6 nM at IKZF2 [3]. The maximal fold induction in assay [4] (setting [6]) was 2.5; in assay [4] (setting [7]), at least 1.9. The same molecule came in with an EC50 in assay [4] (ELISA of supernatants) of 0.6 nM. For the same molecule, at IKZF2 [5], the kinact was 0.000189 s⁻¹.

Take `O=C1CC[C@H](N2Cc3cc(C[C@H]4CCCC[C@@H]4NC4CCC(F)(F)CC4)ccc3C2=O)C(=O)N1` (single isomer, unassigned) [Example 328]: the Dmax on IKZF1 was 62%; at IKZF2 [1], 98%; at IKZF2 [2], 94%; at IKZF2 [3] it was 96%. Also, the DC50 is 22 nM at IKZF1; above 10000 nM at SALL4; 1 nM on IKZF2 [1]; 2 nM on IKZF2 [2]; 0.4 nM at IKZF2 [3]. The maximal fold induction was 2.7 in assay [4] (setting [6]) and at least 1.9 in assay [4] (setting [7]). This molecule also had an EC50 in assay [4] (ELISA of supernatants) of 3.4 nM. Moreover, the kinact on IKZF2 [5] is 0.000175 s⁻¹.

`O=C1CCC(N2Cc3cc(C[C@H]4CCCC[C@@H]4NC4CCC(F)(F)CC4)ccc3C2=O)C(=O)N1` (stereo partly drawn) [Example 46, 3-(5-(((1R,2S)-2-((4,4-difluorocyclohexyl)amino)cyclohexyl)methyl)-1-oxoisoindolin-2-yl)piperidine-2,6-dione]: the Dmax worked out at 29% at IKZF1, 94% at IKZF2 [1], 96% on IKZF2 [2] and 95% on IKZF2 [3]. The DC50 was 33 nM at IKZF1; above 10000 nM on SALL4; 1 nM on IKZF2 [1]; 3 nM on IKZF2 [2]; 2 nM on IKZF2 [3]. In addition, at IKZF2 [2] (24 hrs), the “IKZF2 degradation potency compared with Reference Compound B-4” value is “more potent”. The maximal fold induction in assay [4] (setting [6]) was 2.7; in assay [4] (setting [7]), at least 1.9. In assay [4] (ELISA of supernatants), this molecule yielded an EC50 of 3.5 nM. For the same molecule, on IKZF2 [5] (HEK293), the “speed of IKZF2 degradation compared with Reference Compounds A-1, B-3, B-4, C-1” value is on record as “faster degradation of IKZF2”. Further, the kinact at IKZF2 [5] is 0.000158 s⁻¹.
